Test results taken from US9034309B2, “Biocidal polymers” (Wisconsin Alumni Research Foundation, priority 2003, dated 2015).
Converted amounts (≈) assume the structure as drawn. Where a SMILES comes first, the peptide text is derived from it.

What was measured:
[1] = system: E. faecium A436 (vancomycin-resistant); experiment: microbe, parasite or virus in culture; assay type: cell-based, Enterococcus faecium; settings: for MIC E. faecium A436: Table 3, unit not given (Table 1: μg/mL), median of at least three experiments
Protocol: (§1) Minimal Inhibitory Concentration (MIC): Stock solutions of polymers (5.00 μL at 2 mg/mL, prepared as described above), commercial synthetic (Ala^8,3,18)-1-magainin-2-amide (Sigma, dissolved in Millipore water to 1 mg/mL, 10.0 μL, as positive control), or solvent blank (5.00 μL) were diluted into brain-heart infusion (BHI) broth in row A of 96-well sterile assay plates (B-D Falcon 35-3075, Fisher Scientific) and seven serial twofold dilutions were performed to give 50 μL of peptide solution (at double the final assay concentration) in each well. Bacterial strains (Escherichia coli JM1O9, Bacillus subtilis BR151,^24 Staphylococcus aureus 5332 (a clinical MRSA isolate from the Weisblum laboratory strain collection), and Enterococcus faecium A436^25) were grown on 2% bacteriological agar in BHI medium. Cells from these cultures were suspended in BHI broth at a concentration of approximately 10^6 colony-forming units (CFU)/mL, and 50 μL of cell suspension was added to each well to give a total of 100 μL in each well.
(§2) Plates were then incubated at 37° C. for 6 h. Bacterial growth gives rise to turbidity and light scattering, which was detected by measuring 0D650 using a Molecular Devices Emax microplate reader connected to a Windows computer running SOFTmax v.2.34. OD650 values from two simultaneous experiments were averaged. […] If an even number of experiments was performed and the two median values were not identical, the geometric mean is reported as the MIC.

B. subtilis BR151 = experiment: microbe, parasite or virus in culture; assay type: cell-based, Bacillus subtilis; settings: for MIC B. subtilis BR151: Table 3, unit not given (Table 1: μg/mL), median of at least three experiments
Protocol: as §1, §2

[2] = system: S. aureus 5332 (clinical MRSA isolate); experiment: microbe, parasite or virus in culture; assay type: cell-based, Staphylococcus aureus; settings: for MIC S. aureus 5332: Table 3, unit not given (Table 1: μg/mL), median of at least three experiments
Protocol: as §1, §2

E. coli JM109 [3] = experiment: microbe, parasite or virus in culture; assay type: cell-based, Escherichia coli; settings: for MIC E. coli JM109: Table 3, unit not given (Table 1: μg/mL), median of at least three experiments
Protocol: as §1, §2

[4] = system: E. Coli, B. subtilis, methicillin-resistant S. aureus, vancomycin-resistant E. faecium; experiment: BHI growth inhibition assay, statements over all four strains; assay type: cell-based; settings: BHI broth, up to 50 μg/mL
Protocol: as §1
Plates were then incubated at 37° C. for 6 h. Bacterial growth gives rise to turbidity and light scattering, which was detected by measuring 0D650 using a Molecular Devices Emax microplate reader connected to a Windows computer running SOFTmax v.2.34. OD650 values from two simultaneous experiments were averaged. […]

E. coli JM109 [5] = experiment: Minimal Bactericidal Concentration (MBC); assay type: cell-based, Escherichia coli; settings: Table 2, unit not given; lowest well concentration showing no colonies (>99% killing); plates incubated 4 d
Protocol: Minimal Bactericidal Concentration (MBC): To determine cell viability, 10 μL from each of the MIC, 2×MIC, and 4×MIC wells (up to the maximum concentration of […]) was diluted 100-fold. Of this, 100 μL (containing at most 5×10^2 CFU) was plated on 2% bacteriological agar in BHI medium and incubated at 37° C. overnight (for B. subtilis) or for 4 d (for E. coli, because no growth was seen after 10 h; colonies appeared on some plates after extended incubation). The absence of colonies was considered indicative of >99% bacterial killing, and the lowest assay well concentration showing no colonies is reported as the MBC.

Row | MIC ([1]; Enterococcus faecium, BHI broth, 37° C., 6 h, tested up to 50 μg/mL, conservative estimates, read-out: Minimum Inhibitory Concentrations (MIC's) E. faecium A436) | MIC E. faecium A436 ([1]; BHI broth, 37° C., 6 h) | MIC (B. subtilis BR151; Bacillus subtilis, BR151, BHI broth, 37° C., 6 h, tested up to 50 μg/mL, conservative estimates, read-out: Minimum Inhibitory Concentrations (MIC's) B. subtilis BR151) | MIC B. subtilis BR151 (B. subtilis BR151; BHI broth, 37° C., 6 h) | MIC ([2]; Staphylococcus aureus, MRSA, BHI broth, 37° C., 6 h, tested up to 50 μg/mL, conservative estimates, read-out: Minimum Inhibitory Concentrations (MIC's) S. aureus 5332) | MIC S. aureus 5332 ([2]; BHI broth, 37° C., 6 h) | MIC (E. coli JM109 [3]; Escherichia coli, JM109, BHI broth, 37° C., 6 h, tested up to 50 μg/mL, conservative estimates, read-out: Minimum Inhibitory Concentrations (MIC's) E. coli JM109) | MIC E. coli JM109 (E. coli JM109 [3]; BHI broth, 37° C., 6 h) | Minimum Inhibitory Concentrations (MIC's) E. faecium A436 ([1]; A436 (vancomycin-resistant, 6 h)) | Minimum Inhibitory Concentrations (MIC's) B. subtilis BR151 (B. subtilis BR151; BR151, 6 h) | Minimum Inhibitory Concentrations (MIC's) S. aureus 5332 ([2]; 5332 (clinical isolate, 6 h)) | Minimum Inhibitory Concentrations (MIC's) E. coli JM109 (E. coli JM109 [3]; JM109, 6 h) | Compound | growth inhibition / inhibitory activity (in words) [4] | MBC E. coli JM109 (E. coli JM109 [5])
1 | > 50 µg/mL | > 50 µg/mL | > 50 µg/mL | > 50 µg/mL | > 50 µg/mL | > 50 µg/mL | > 50 µg/mL | > 50 µg/mL |  |  |  |  | C=Cc1ccc(CN(C)C)cc1 [(1) (monomer), 4-(dimethylaminomethyl)-styrene] | no growth inhibition | 
2 |  | 3.2 µg/mL (≈ 1.29 µM) |  | 6.3 µg/mL (≈ 2.54 µM) |  | 12.5 µg/mL (≈ 5.04 µM) |  | 12.5 µg/mL (≈ 5.04 µM) | 3.2 µg/mL | 6.3 µg/mL | 12.5 µg/mL | 12.5 µg/mL | CC[C@H](C)[C@H](NC(=O)CN)C(=O)NCC(=O)N[C@@H](CCCCN)C(=O)N[C@@H](Cc1ccccc1)C(=O)N[C@@H](CC(C)C)C(=O)N[C@@H](Cc1c[nH]cn1)C(=O)N[C@@H](C)C(=O)N[C@@H](C)C(=O)N[C@@H](CCCCN)C(=O)N[C@@H](CCCCN)C(=O)N[C@@H](Cc1ccccc1)C(=O)N[C@@H](C)C(=O)N[C@@H](CCCCN)C(=O)N[C@@H](C)C(=O)N[C@@H](Cc1ccccc1)C(=O)N[C@H](C(=O)N[C@@H](C)C(=O)N[C@@H](CCC(=O)O)C(=O)N[C@H](C(=O)N[C@@H](CCSC)C(=O)N[C@@H](CC(N)=O)C(=O)N[C@@H](CO)C(N)=O)[C@@H](C)CC)C(C)C [(Ala^8,3,18)-magainin-2-amide] (H-GIGKFLHAAKKFAKAFVAEIMNS-NH2; N-terminus assumed) |  | 25
